The source of these data is US6924269B2, “Enzyme inhibitors and methods therefor” (VDF Futureceuticals, Inc., priority 2002, dated 2005).

One experiment concerns the target T1, COX-1 (Homo sapiens, UniProt P23219).
T1 construct: the source material was human platelets using endogenous arachidonic acid; endogenous in cells; host or cells: human platelets
Kind of experiment: COX-1 enzyme inhibition study (human platelets, endogenous arachidonic acid, EIA of PGE2). It counts as biochemical. How it is done:
COX-1 enzyme inhibition study was performed using a protocol similar to protocols previously described (see e.g., Riendeau D, et al. in Brit. J. Pharmacol. (1997) 121:105-117; or Warner et al. in Proc. Natl. Acad.Sci. (1999) 96:7563-7568). Typically, the source material was human platelets using endogenous arachidonic acid (Vehicle 1% DMSO) at a preincubation time of 15 min at 37 Centigrades and an incubation time of 15 min at 37 Centigrades (Incubation buffer was HBSS buffer with 15mM HEPES pH7.4). Quantitative analysis was performed via EIA determination of PGE2.

The target of the next experiment is T2, COX-2 (Homo sapiens, UniProt P35354).
T2 construct: host or cells: Sf9 insect cells
T2 sequence (P35354 18-604): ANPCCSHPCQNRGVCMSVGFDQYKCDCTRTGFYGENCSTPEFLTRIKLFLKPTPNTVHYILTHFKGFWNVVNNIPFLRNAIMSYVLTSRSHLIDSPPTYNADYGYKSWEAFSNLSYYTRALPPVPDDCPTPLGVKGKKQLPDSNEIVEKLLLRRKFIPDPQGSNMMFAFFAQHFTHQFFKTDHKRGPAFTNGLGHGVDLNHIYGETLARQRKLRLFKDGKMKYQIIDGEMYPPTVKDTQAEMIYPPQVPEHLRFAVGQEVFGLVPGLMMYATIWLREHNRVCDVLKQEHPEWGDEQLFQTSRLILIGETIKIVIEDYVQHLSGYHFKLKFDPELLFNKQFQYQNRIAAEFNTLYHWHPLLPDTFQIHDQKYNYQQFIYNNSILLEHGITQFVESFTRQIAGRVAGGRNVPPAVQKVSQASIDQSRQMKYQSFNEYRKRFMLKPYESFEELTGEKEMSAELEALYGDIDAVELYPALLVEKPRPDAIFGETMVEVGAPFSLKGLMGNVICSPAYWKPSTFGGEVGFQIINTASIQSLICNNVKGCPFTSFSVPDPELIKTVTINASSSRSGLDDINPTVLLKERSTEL
Kind of experiment: COX-2 enzyme inhibition study (human recombinant, Sf9 cells, 0.3 microM arachidonic acid, PGE2 determination). It counts as biochemical. How it is done:
COX-2 enzyme inhibition study was performed using a protocol similar to protocols previously described (see e.g., Riendeau D, et al. in Can. J. Physiol. Pharmacol. (1997) 75:1088-11095; or Warner et al. in Proc. Natl. Acad.Sci. (1999) 96:7563-7568). Typically, the source material was human recombinant Sf9 cells using 0.3 microM arachidonic acid (Vehicle 1% DMSO) at a preincubation time of 15 min at 37 Centigrades and an incubation time of 15 min at 37 Centigrades (Incubation buffer was 100 mM Tris 1 mM Glutathione, 1 microM hematin, and 0.5mM phenol, pH7.7). Quantitative analysis was performed via ETA determination of PGE2.

T1 sequence (P23219 24-599): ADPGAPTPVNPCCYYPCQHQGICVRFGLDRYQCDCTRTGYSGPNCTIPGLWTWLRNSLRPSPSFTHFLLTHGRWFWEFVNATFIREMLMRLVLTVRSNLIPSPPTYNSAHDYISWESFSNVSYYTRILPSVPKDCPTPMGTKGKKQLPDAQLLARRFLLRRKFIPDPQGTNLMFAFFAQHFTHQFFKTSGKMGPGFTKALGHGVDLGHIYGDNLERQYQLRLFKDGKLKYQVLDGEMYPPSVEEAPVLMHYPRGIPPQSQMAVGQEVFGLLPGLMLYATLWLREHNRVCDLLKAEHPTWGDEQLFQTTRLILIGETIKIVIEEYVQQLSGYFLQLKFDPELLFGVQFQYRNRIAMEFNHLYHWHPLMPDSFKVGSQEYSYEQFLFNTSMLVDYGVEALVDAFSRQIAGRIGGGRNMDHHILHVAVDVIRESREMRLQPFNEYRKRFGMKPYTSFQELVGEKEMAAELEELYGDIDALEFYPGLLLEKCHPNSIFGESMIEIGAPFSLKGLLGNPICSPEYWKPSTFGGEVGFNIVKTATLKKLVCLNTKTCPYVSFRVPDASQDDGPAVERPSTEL

Turning to Calcium Fructoborate, at COX-1, the “COX-1 IC50” value was 222 µg/mL. The “COX-1 (% Inhib.)” value is reported as 29% on COX-1 (concentration 100 μg/ml), 85% on COX-1 (concentration 1000 μg/ml) and 95% on COX-1 (concentration 10 mg/ml). In addition, on COX-1 (ratio of IC50 values, COX-1 over COX-2), the “Selectivity COX-1 to COX-2” value is given as “least 45-fold”. Further, the “COX-2 IC50” value at COX-2 was more than 10000 µg/mL. Further, the “COX-2 (% Inhib.)” value at COX-2 (concentration 100 μg/ml) is 8%; on COX-2 (concentration 1000 μg/ml), 12%; at COX-2 (concentration 10 mg/ml), 10%.
As to Potassium Boroascorbate, the “COX-1 IC50” value on COX-1 turned out to be 8570 µg/mL. For the same substance, the “COX-1 (% Inhib.)” value is given as −5% on COX-1 (concentration 100 μg/ml), −2% at COX-1 (concentration 1000 μg/ml) and 69% at COX-1 (concentration 10 mg/ml). The “COX-2 IC50” value at COX-2 is less than 100 µg/mL. Besides, the “COX-2 (% Inhib.)” value is 77% on COX-2 (concentration 100 μg/ml), 73% on COX-2 (concentration 1000 μg/ml) and 71% at COX-2 (concentration 10 mg/ml). Besides, the “Selectivity COX-2 to COX-1” value on COX-2 (ratio of IC50 values, COX-2 over COX-1) is listed as “least 85-fold”.
